Literature values, collected in patent US8986714B2, “Formulations, methods and procedures for reducing or preventing the development, or the risk of development, of neuropathology as a result of trauma” (Sapna Life Sciences Corporation, priority 2013, dated 2015).

Experiments:
[1] = test system: amyotrophic lateral sclerosis
[2] = test system: chronic spinal cord injury; conditions: chronic spinal cord injury patients, first two weeks
[3] = test system: chronic spinal cord injury; conditions: stable chronic spinal cord injury patients
[4] = test system: chemotherapy-induced nausea and vomiting; conditions: in conjunction with another antiemetic drug
migraine attacks = conditions: human, in vivo
spinal cord compression = conditions: in vivo
[5] = test system: immature mouse brain ischemia; conditions: treatment of acute seizures; measured four weeks later
postherpetic neuralgia = conditions: combined with valacyclovir; six months later
spinal cord ischemia = conditions: rabbits
[6] = test system: chronic post-surgical pain; conditions: perioperative administration; at two months or more after various types of surgery
[7] = test system: peripheral nerve crush injury; conditions: facial nerve and sciatic nerve injury models
[8] = test system: partial sciatic nerve ligation; conditions: compared to controls
[9] = test system: rat model of neuropathic pain
[10] = test system: cat spinal dorsal horn neurons; conditions: noxious cutaneous stimulation and substance P
traumatic brain injury = conditions: approximately 80 patients treated within eight hours after traumatic brain injury

O=C([O-])[O-].[Li+].[Li+] [lithium carbonate]
mortality ([1]; 22 patients, over 15 months): prevented death of 22 patients | motor deterioration ([1]; 22 patients, over 15 months): only minimal motor deterioration | plasma levels ([1]; daily oral doses): 400 to 800 µM | tolerability [2]: well tolerated over the first two weeks | effect on neurological symptoms [3]: without effect on neurological symptoms

C[C@@H](O[C@H]1OCCN(Cc2n[nH]c(=O)[nH]2)[C@H]1c1ccc(F)cc1)c1cc(C(F)(F)F)cc(C(F)(F)F)c1 [aprepitant]
acute effects on chemotherapy-induced nausea and vomiting [4]: proved to be effective when administered in conjunction with another antiemetic drug

COc1ccccc1[C@H](C)C(=O)N1C[C@@H]2[C@H](C1)C(c1ccccc1)(c1ccccc1)CC[C@@]2(O)c1ccccc1OC [RPR100893]
treatment of migraine attacks (migraine attacks): not effective

NCC1(CC(=O)O)CCCCC1 [gabapentin]
outcomes of neuropathology, spinal cord compression (spinal cord compression): preventive effects | brain atrophy [5]: beneficial effects on brain atrophy | rate of postherpetic neuralgia (postherpetic neuralgia): reduced | outcomes of neuropathology, spinal cord ischemia (spinal cord ischemia): preventive effects | incidence of chronic post-surgical pain [6]: reducing the incidence of chronic post-surgical pain

[Cl-].[Li+] [lithium chloride]
expression of myelin genes [7]: stimulate the expression of myelin genes | functional recovery [7]: accelerate functional recovery | myelin structure [7]: restore myelin structure | nociceptive scores in response to tactile and thermal stimuli [8]: reduced the nociceptive scores

COc1ccccc1CN[C@H]1C2CCN(CC2)[C@H]1C(c1ccccc1)c1ccccc1 [CP-96,345]
recovery from peripheral nerve injury ([9]; animal model): promotes the recovery from peripheral nerve injury | responses of spinal dorsal horn neurons [10]: blocks responses of cat spinal dorsal horn neurons to noxious cutaneous stimulation and to substance P

CC(=O)[C@H]1CC[C@H]2[C@@H]3CCC4=CC(=O)CC[C@]4(C)[C@H]3CC[C@]12C [progesterone]
development of symptoms of peripheral nerve injury ([9]; early administration, intraperitoneally): prevents the development of symptoms of peripheral nerve injury | tactile hypersensitivity, late treatment ([9]; given for 11 days, starting on day 20, versus control group): no difference between this experimental group and the control group | tactile hypersensitivity by 30 days ([9]; started one hour after model induction, daily for the subsequent 10 days): no tactile hypersensitivity | persistence of effect after treatment ended on day 10 ([9]; study period ended at day 85): persisted to the end of the study period | neurological outcomes (traumatic brain injury): improved neurological outcomes
